Legend:
[1] = target: T1, Peroxisome proliferator-activated receptor alpha (Homo sapiens, UniProt Q07869); format: functional, cell-based, CV-1
T1 sequence (Q07869 whole entry): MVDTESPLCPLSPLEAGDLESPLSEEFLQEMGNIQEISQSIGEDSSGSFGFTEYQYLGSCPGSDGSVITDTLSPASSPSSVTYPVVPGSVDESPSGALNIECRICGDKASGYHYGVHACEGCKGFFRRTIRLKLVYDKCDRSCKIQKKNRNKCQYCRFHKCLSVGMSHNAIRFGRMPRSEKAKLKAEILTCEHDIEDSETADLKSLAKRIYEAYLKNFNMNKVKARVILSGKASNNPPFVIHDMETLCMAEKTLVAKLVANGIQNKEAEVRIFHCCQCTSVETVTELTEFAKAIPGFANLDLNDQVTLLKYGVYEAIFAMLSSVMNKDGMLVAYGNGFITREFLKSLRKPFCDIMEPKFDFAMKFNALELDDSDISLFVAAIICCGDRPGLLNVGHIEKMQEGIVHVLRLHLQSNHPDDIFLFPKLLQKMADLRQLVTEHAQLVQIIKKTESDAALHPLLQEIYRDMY

[2] = target: T2, Peroxisome proliferator-activated receptor delta (Homo sapiens, UniProt Q03181); format: functional, cell-based, CV-1
T2 sequence (Q03181 whole entry): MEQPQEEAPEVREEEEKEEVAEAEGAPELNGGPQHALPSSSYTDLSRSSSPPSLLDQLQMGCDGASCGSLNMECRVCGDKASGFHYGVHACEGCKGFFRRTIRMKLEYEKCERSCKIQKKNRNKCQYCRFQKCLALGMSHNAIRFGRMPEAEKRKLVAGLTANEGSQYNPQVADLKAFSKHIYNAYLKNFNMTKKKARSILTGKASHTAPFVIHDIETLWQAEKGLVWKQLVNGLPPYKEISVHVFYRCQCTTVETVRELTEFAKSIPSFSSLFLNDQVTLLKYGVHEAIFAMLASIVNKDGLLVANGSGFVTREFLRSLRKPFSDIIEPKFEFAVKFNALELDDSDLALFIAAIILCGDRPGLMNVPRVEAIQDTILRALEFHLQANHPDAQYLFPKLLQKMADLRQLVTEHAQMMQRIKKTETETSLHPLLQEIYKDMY

[3] = target: T1, Peroxisome proliferator-activated receptor alpha
[4] = target: T2, Peroxisome proliferator-activated receptor delta
in vivo [5] = conditions: db/db, mouse
in vivo [6] = conditions: Sprague-Dawley, rat, po, 12 mg/kg
in vivo [7] = conditions: Sprague-Dawley, rat, po, 12 mg/kg; remark: listed apart in the source
in vivo [8] = conditions: Sprague-Dawley, rat, po, 12 mg/kg; remark: listed apart in the source
in vivo [9] = conditions: Sprague-Dawley, rat, iv, 1 mg/kg

| SMILES | EC50 [1] | EC50 [2] | IC50 [3] | IC50 [4] | also measured |
| --- | --- | --- | --- | --- | --- |
| CCc1cc(OCC[C@@H](C)Oc2ccc(C(F)(F)F)cc2-c2ccccn2)ccc1CCC(=O)O | 2630 nM | 6 nM | 6090 nM | 3 nM | concentration at 1 h (in vivo [5]): 4200 ng/mL |
| CCc1ccc(O[C@H](C)CCOc2ccc(CCC(=O)O)c(C)c2)c(-c2cscn2)c1 | 2680 nM |  | 4100 nM |  |  |
| CCc1ccc(O[C@H](C)CCOc2ccc(CCC(=O)O)c(C)c2)c(-c2cocn2)c1 | 2810 nM |  | 4990 nM |  |  |
| CCc1ccc(O[C@H](C)CCOc2ccc(CCC(=O)O)c(C)c2)c(-c2cccnc2)c1 | 2900 nM |  |  |  |  |
| Cc1cc(OCC[C@@H](C)Oc2ccc(C(F)(F)F)cc2-c2ccccn2)ccc1CCC(=O)O | 2340 nM | 6 nM | 5880 nM | 4 nM |  |
| CCc1ccc(O[C@H](C)CCOc2ccc(CCC(=O)O)c(CC)c2)c(-c2ccccn2)c1 |  | 7 nM | 7350 nM | 3 nM | bioavailability (in vivo [6]): 71%; half-life (in vivo [7]): 3 h; AUC (in vivo [8]): 75500 ng·h/mL; clearance (in vivo [9]): 1.9 mL/min/kg |
| CCc1ccc(O[C@H](C)CCOc2ccc(CCC(=O)O)c(C)c2)c(-c2ccco2)c1 | 2800 nM |  | 4500 nM |  |  |
| CCc1ccc(O[C@H](C)CCOc2ccc(CCC(=O)O)c(C)c2)c(-c2ncco2)c1 | 2890 nM |  | 10400 nM |  |  |
| CCc1ccc(O[C@H](C)CCOc2ccc(CCC(=O)O)c(C)c2)c(-c2ccsc2)c1 |  |  | 5950 nM |  |  |
